Assay results reported in patent US20260258050A1, “IMMUNOMODULATOR” (HITGEN INC., priority 2023, published 2026).
pIC50: −log10 of the molar value.

These molecules were tested against T1, Human IL-17AF (Homo sapiens, UniProt Q16552+Q96PD4) (assay: IL-17AF ELISA (competitive ELISA, IL-17AF/IL-17Ra receptor-ligand binding)). Conditions: human IL-17AF coated plate, human IL-17Ra, read-out: IC50, inhibitory activity of compounds on human IL-17AF.
T1 construct: purchased Sino Biological Inc. CT047-H08H
T1 sequence (Q16552 24-155): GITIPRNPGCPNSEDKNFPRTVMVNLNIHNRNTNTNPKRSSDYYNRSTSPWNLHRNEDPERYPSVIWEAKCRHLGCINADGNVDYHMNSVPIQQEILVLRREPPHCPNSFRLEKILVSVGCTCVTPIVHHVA
T1 sequence (Q96PD4 31-163): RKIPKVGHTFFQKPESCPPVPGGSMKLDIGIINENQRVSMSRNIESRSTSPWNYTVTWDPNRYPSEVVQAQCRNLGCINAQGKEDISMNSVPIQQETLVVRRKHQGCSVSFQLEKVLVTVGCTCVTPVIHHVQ
How it was run: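 Plates coated with 0.625 μg/ml human IL-17AF in PBS pH 7.4 (37 °C, 30 min) and milk-blocked. Compounds pre-incubated with coated IL-17AF for 10 min at 25 °C, then IL-17Ra added (as 100 nM solution) for 30 min. Bound receptor detected by anti-Fc HRP/TMB at 450 nm; IC50 from variable-slope normalized fit versus DMSO control and blank.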

Row | pIC50 | Structure (SMILES)
1 | ≥ 7.00 | CCn1nccc1C(=O)N[C@H](C(=O)Nc1ccc2c(c1)COCCc1n[nH]c(C)c1-2)C(C1CC1)C1CC1 [compound 3]
2 | 6.30 to 7.00 | Cc1[nH]nc2c1-c1ccc(NC(=O)[C@@H](NC(=O)c3ccnn3C3CC3)C(C3CC3)C3CC3)cc1COCC2 [compound 6]
3 | 6.30 to 7.00 | Cc1[nH]nc2c1-c1cnc(NC(=O)[C@@H](NC(=O)c3ccnn3C[C@@H]3C[C@H]3F)C(C3CC3)C3CC3)cc1COCC2 [compound 125]
4 | 6.30 to 7.00 | Cc1[nH]nc2c1-c1cc(F)c(NC(=O)[C@@H](NC(=O)c3ccnn3C(C)C)C(C3CC3)C3CC3)cc1CN(C)C(=O)C2 [compound 132]
5 | 6.30 to 7.00 | CCn1nccc1C(=O)N[C@H](C(=O)Nc1cc2c(cc1F)-c1c(n[nH]c1C)CC(=O)N(C)C2)C(C1CC1)C1CC1 [compound 133]
6 | ≥ 7.00 | Cc1[nH]nc2c1-c1cc(F)c(NC(=O)[C@@H](NC(=O)c3ccnn3C(C)C)C(C3CC3)C3CC3)cc1CN(C1CC1)C(=O)C2 [compound 136]
7 | ≥ 7.00 | CCN1Cc2cc(NC(=O)[C@@H](NC(=O)c3ccnn3C(C)C)C(C3CC3)C3CC3)c(F)cc2-c2c(n[nH]c2C)CC1=O [compound 142]
8 | ≥ 7.00 | CCN1Cc2cc(NC(=O)[C@@H](NC(=O)c3ccnn3CC)C(C3CC3)C3CC3)c(F)cc2-c2c(n[nH]c2C)CC1=O [compound 143]
9 | 6.30 to 7.00 | Cc1[nH]nc2c1-c1cc(F)c(NC(=O)[C@@H](NC(=O)c3ccnn3C(C)C)C(C3CC3)C3CC3)cc1CN(CC(F)F)C(=O)C2 [compound 144]
10 | ≥ 7.00 | CCn1nccc1C(=O)N[C@H](C(=O)Nc1cc2c(cc1F)-c1c(n[nH]c1C)CC(=O)N(CC(F)F)C2)C(C1CC1)C1CC1 [compound 145]
11 | 6.30 to 7.00 | Cc1[nH]nc2c1-c1cc(F)c(NC(=O)[C@@H](NC(=O)c3ccnn3C(C)C)C(C3CC3)C3CC3)cc1CN(CC(C)(F)F)C(=O)C2 [compound 148]
12 | ≥ 7.00 | CCn1nccc1C(=O)N[C@H](C(=O)Nc1cc2c(cc1F)-c1c(n[nH]c1C)CC(=O)N(CC(C)(F)F)C2)C(C1CC1)C1CC1 [compound 149]
13 | ≥ 7.00 | Cc1[nH]nc2c1-c1cc(F)c(NC(=O)[C@@H](NC(=O)c3ccnn3C(C)C)C(C3CC3)C3CC3)cc1CN(C(C)C)C(=O)C2 [compound 150]
14 | ≥ 7.00 | CCn1nccc1C(=O)N[C@H](C(=O)Nc1cc2c(cc1F)-c1c(n[nH]c1C)CC(=O)N(C(C)C)C2)C(C1CC1)C1CC1 [compound 151]
15 | 6.30 to 7.00 | Cc1[nH]nc2c1-c1cc(F)c(NC(=O)[C@@H](NC(=O)c3ccnn3C(C)C)C(C3CC3)C3CC3)cc1CN(CC(F)(F)F)C(=O)C2 [compound 152]
16 | ≥ 7.00 | Cc1[nH]nc2c1-c1cc(F)c(NC(=O)[C@@H](NC(=O)c3ccnn3C(C)C)C(C3CC3)C3CC3)cc1CN(CC1CC1)C(=O)C2 [compound 153]
17 | 6.30 to 7.00 | CCN1CCc2n[nH]c(C)c2-c2cc(F)c(NC(=O)[C@@H](NC(=O)c3ccnn3C(C)C)C(C3CC3)C3CC3)cc2C1 [compound 156]
18 | 6.30 to 7.00 | Cc1[nH]nc2c1-c1cc(F)c(NC(=O)[C@@H](NC(=O)c3ccnn3C(C)C)C(C3CC3)C3CC3)cc1CN(CC(F)F)CC2 [compound 158]
19 | ≥ 7.00 | CCn1nccc1C(=O)N[C@H](C(=O)Nc1cc2c(cc1F)-c1c(n[nH]c1C)CCN(CC(F)F)C2)C(C1CC1)C1CC1 [compound 159]
20 | 6.30 to 7.00 | Cc1[nH]nc2c1-c1cc(F)c(NC(=O)[C@@H](NC(=O)c3ccnn3C(C)C)C(C3CC3)C3CC3)cc1CN(CC(C)(F)F)CC2 [compound 160]
21 | ≥ 7.00 | CCn1nccc1C(=O)N[C@H](C(=O)Nc1cc2c(cc1F)-c1c(n[nH]c1C)CCN(CC(C)(F)F)C2)C(C1CC1)C1CC1 [compound 161]
22 | 6.30 to 7.00 | Cc1[nH]nc2c1-c1cc(F)c(NC(=O)[C@@H](NC(=O)c3ccnn3C(C)C)C(C3CC3)C3CC3)cc1CN(CC(F)(F)F)CC2 [compound 164]
23 | 6.30 to 7.00 | Cc1[nH]nc2c1-c1cc(F)c(NC(=O)[C@@H](NC(=O)c3ccnn3C(C)C)C(C3CC3)C3CC3)cc1CN(C1CC1)CC2 [compound 165]
